Data as given in PubChem BioAssay AID1963839 (Molecular Pharmacology Branch, DTP, NCI, 2024).

System: 817829-284-R-J1-PDC complex spheroid viability
Test: Anticancer human tumor 817829-284-R-J1-PDC patient-derived colon adenocarcinoma cell line growth inhibition [POLQ]
Details: for IC50: curve of first compound; for viability, T/C: stronger effect = lower value
Description: Multicellular complex tumor spheroid response to Polymerase (POL) inhibitors (novobiocin, ART-558, RP6685) in combination with a variety of drugs and investigational agents in selected tumor cell lines
The POL inhibitors (novobiocin, ART-558, and RP6685) were evaluated both individually and in combination with standard of care and investigational anticancer small molecules within a complex spheroid model of solid tumors. . Complex spheroids include a stromal component modeled by human endothelial cells (HUVEC) and fibroblasts modeled by human mesenchymal stem cells (MSCs). The concentration ranges selected for each drug and investigational agent were based upon clinically achievable concentrations if the clinical Cmax of the agent was known.
Compounds. The drugs and investigational agents: novobiocin (NSC847541), ART-558 (NSC835418), RP-6685 (NSC848927), peposertib (NSC802822), ceralasertib (NSC780249), elimusertib (NSC800525), camonsertib (NSC841442), AZD-1390 (NSC803789), olaparib (NSC753686), talazoparib (NSC767125), rucaparib (NSC756644), sotorasib (NSC818433), MRTX-1133 (NSC836407), SN-38 (NSC673596), topotecan (NSC609699), epotoside (NSC141540), doxorubicin (NSC123127), gemcitabine (NSC613327), 5-fluorouracil (NSC19893), paclitaxel (NSC125973), vemurafenib (NSC761431), MSA-2 (NSC828583), SN-011 (NSC837082), adavosertib (NSC754352), prexasertib (NSC758257), carboplatin (NSC241240) and oxaliplatin (NSC266046), were obtained from the National Cancer Institute (NCI) Developmental Therapeutics Program Chemical Repository (21). The FDA-approved anticancer drug set is available from the Developmental Therapeutics Program at https://dtp.cancer.gov/organization/dscb/obtaining/. […] The stock solutions were prepared in dimethyl sulfoxide (DMSO, Sigma-Aldrich, St. Louis, MO, cat. D2650), except for the platinum compounds which were prepared in saline (Quality Biological, Gaithersburg, MD, cat. 114-055-101), at 800-fold the tested concentration and stored at -70 degrees C prior to their use. All drugs and investigational agents were tested over a range starting from a high concentration at or near the clinical Cmax and decreasing in half-log increments. If the clinical Cmax for an agent had not been determined, the highest concentration tested was 10 microM, except for SN-38, which was tested at a high concentration of 1 microM.
Cell Culture. All cells were maintained in an incubator at 37 degrees C and 5% CO2 with 95% humidity. The PDC lines were cultured according to standard operating procedures established by the NCI PDMR (https://pdmr.cancer.gov). Table 3 of the manuscript, lists the cell lines along with the number of the three cell types plated to form the mct-spheroids and media for tumor cell growth. After thawing, all PDC lines, except 997537-175-T-J1-PDC and 415267-285-R-J2-PDC, were cultured in Matrigel-coated flasks prepared with a working solution of 1X Ham's F-12 nutrient mix, without supplementation (Thermo Fisher Scientific, cat. 11765054), 100 U/mL penicillin-streptomycin (Thermo Fisher Scientific, cat. 15140122), and 2.5% Matrigel (Corning Inc., Corning, NY, cat. 354248) for the first three passages. The two PDC lines 997537-175-T-J1-PDC and 415267-285-R-J2-PDC were cultured on uncoated flasks. The 857933-349-R-J2-PDC line was cultured in 6C/Colon 1B media containing advanced DMEM/F-12 (Thermo Fisher Scientific, cat. 12634028), 10 mM HEPES (Thermo Fisher Scientific, cat. 15630080), 1X GlutaMAX supplement (Thermo Fisher Scientific, cat. 35050061), 0.1 mg/mL primocin (InvivoGen, San Diego, CA, cat. ant-pm-2), 10% defined fetal bovine serum, heat inactivated (HyClone Laboratories Inc., Logan, UT, cat. SH30070.03HI), 50% L-WRN conditioned media (ATCC, cat. CRL-3276), 1.25 mM N-Acetyl-L-cysteine (Sigma-Aldrich, cat. A9165), 10 mM nicotinamide (Sigma-Aldrich, cat. N0636), 1X B-27 supplement (Thermo Fisher Scientific, cat. 17504044), 1X N-2 supplement (Thermo Fisher Scientific, cat. […]

[1] = second compound 0.0316 µM, first compound 0.0316 µM
[2] = second compound 0.0316 µM, first compound 0.1 µM
[3] = second compound 0.0316 µM, first compound 0.316 µM
[4] = second compound 0.0316 µM, first compound 1 µM
[5] = second compound 0.0316 µM, first compound 3.16 µM
[6] = second compound 0.0316 µM, first compound 10 µM
[7] = second compound 0.1 µM, first compound 0.0316 µM
[8] = second compound 0.1 µM, first compound 0.1 µM
[9] = second compound 0.1 µM, first compound 0.316 µM
[10] = second compound 0.1 µM, first compound 1 µM
[11] = second compound 0.1 µM, first compound 3.16 µM
[12] = second compound 0.1 µM, first compound 10 µM
[13] = second compound 0.316 µM, first compound 0.0316 µM
[14] = second compound 0.316 µM, first compound 0.1 µM
[15] = second compound 0.316 µM, first compound 0.316 µM
[16] = second compound 0.316 µM, first compound 1 µM
[17] = second compound 0.316 µM, first compound 3.16 µM
[18] = second compound 0.316 µM, first compound 10 µM
[19] = second compound 1 µM, first compound 0.0316 µM
[20] = second compound 1 µM, first compound 0.1 µM
[21] = second compound 1 µM, first compound 0.316 µM
[22] = second compound 1 µM, first compound 1 µM
[23] = second compound 1 µM, first compound 3.16 µM
[24] = second compound 1 µM, first compound 10 µM
[25] = second compound 3.16 µM, first compound 0.0316 µM
[26] = second compound 3.16 µM, first compound 0.1 µM
[27] = second compound 3.16 µM, first compound 0.316 µM
[28] = second compound 3.16 µM, first compound 1 µM
[29] = second compound 3.16 µM, first compound 3.16 µM
[30] = second compound 3.16 µM, first compound 10 µM
[31] = second compound 10 µM, first compound 0.0316 µM
[32] = second compound 10 µM, first compound 0.1 µM
[33] = second compound 10 µM, first compound 0.316 µM
[34] = second compound 10 µM, first compound 1 µM
[35] = second compound 10 µM, first compound 3.16 µM
[36] = second compound 10 µM, first compound 10 µM
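Also: spheroids exposed to compounds for 7 days.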
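For viability, T/C in this document: 100% = DMSO vehicle-treated spheroids.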

In the case of CC1COCCN1c1cc(C2(S(C)(=N)=O)CC2)nc(-c2ccnc3[nH]ccc23)n1 (centres undefined) + Nc1ccc(C#CCN(C(=O)Cc2ncc(C(F)(F)F)cc2C(F)(F)F)c2ccc(F)cc2)nn1, the IC50 (second compound 0.0316 µM) is reported as 0.313 µM, the IC50 (second compound 0.1 µM) is reported as 0.437 µM and the IC50 (second compound 0.316 µM) is reported as 0.409 µM. The IC50 (second compound 1 µM) was 0.487 µM, the IC50 (second compound 3.16 µM) was 0.471 µM and the IC50 (second compound 10 µM) was 0.306 µM. The viability, T/C [1] was 83.3%, the viability, T/C [2] was 74.2% and the viability, T/C [3] was 48.2%. It also gave a viability, T/C [4] of 25.8%, a viability, T/C [5] of 8.98% and a viability, T/C [6] of 4.09%. For the same compound, the viability, T/C [7] was 83.5%, the viability, T/C [8] was 82.1% and the viability, T/C [9] was 60.7%. For the same compound, the viability, T/C [10] was 21.9%, the viability, T/C [11] was 8.16% and the viability, T/C [12] was 4.21%. The viability, T/C [13] was 99.9%, the viability, T/C [14] was 86.6% and the viability, T/C [15] was 57.8%. For the same compound, the viability, T/C [16] was 24.6%, the viability, T/C [17] was 7.24% and the viability, T/C [18] was 5.14%. It also gave a viability, T/C [19] of 86.9%, a viability, T/C [20] of 87.2% and a viability, T/C [21] of 67.6%. For the same compound, the viability, T/C [22] was 20.4%, the viability, T/C [23] was 7.25% and the viability, T/C [24] was 5.6%. The viability, T/C [25] was 95.7%, the viability, T/C [26] was 83.7% and the viability, T/C [27] was 66%. It also gave a viability, T/C [28] of 22.3%, a viability, T/C [29] of 6.64% and a viability, T/C [30] of 4.14%. For the same compound, the viability, T/C [31] was 86.6%, the viability, T/C [32] was 76.3% and the viability, T/C [33] was 48.1%. The viability, T/C [34] was 23.1%, the viability, T/C [35] was 5.64% and the viability, T/C [36] was 5.25%.
CCCS(=O)(=O)Nc1ccc(F)c(C(=O)c2c[nH]c3ncc(-c4ccc(Cl)cc4)cc23)c1F + Nc1ccc(C#CCN(C(=O)Cc2ncc(C(F)(F)F)cc2C(F)(F)F)c2ccc(F)cc2)nn1 gave an IC50 (second compound 0.0316 µM) of 4.47 µM, an IC50 (second compound 0.1 µM) of 4.54 µM and an IC50 (second compound 0.316 µM) of 3.46 µM. For the same compound, the IC50 (second compound 1 µM) was 3.75 µM, the IC50 (second compound 3.16 µM) was 4.49 µM and the IC50 (second compound 10 µM) was 3.68 µM. The viability, T/C [1] was 90%, the viability, T/C [2] was 75.5% and the viability, T/C [3] was 93.2%. For the same compound, the viability, T/C [4] was 91.3%, the viability, T/C [5] was 67.2% and the viability, T/C [6] was 9.94%. For the same compound, the viability, T/C [7] was 90.4%, the viability, T/C [8] was 55.9% and the viability, T/C [9] was 81.7%. For the same compound, the viability, T/C [10] was 74.7%, the viability, T/C [11] was 68.2% and the viability, T/C [12] was 10.4%. It also gave a viability, T/C [13] of 85%, a viability, T/C [14] of 85.4% and a viability, T/C [15] of 83.2%. The viability, T/C [16] was 75.8%, the viability, T/C [17] was 53.2% and the viability, T/C [18] was 11.5%. It also gave a viability, T/C [19] of 84%, a viability, T/C [20] of 76.7% and a viability, T/C [21] of 88.2%. For the same compound, the viability, T/C [22] was 66.3%, the viability, T/C [23] was 58.6% and the viability, T/C [24] was 13.9%. For the same compound, the viability, T/C [25] was 95.2%, the viability, T/C [26] was 62.6% and the viability, T/C [27] was 78.7%. It also gave a viability, T/C [28] of 84.2%, a viability, T/C [29] of 66.1% and a viability, T/C [30] of 13.2%. It also gave a viability, T/C [31] of 88.9%, a viability, T/C [32] of 64.8% and a viability, T/C [33] of 75.8%. For the same compound, the viability, T/C [34] was 75.9%, the viability, T/C [35] was 55.6% and the viability, T/C [36] was 13.6%.
